Test results taken from ChEMBL document CHEMBL4627322, “Design and synthesis of a novel class EGFR/HER2 dual inhibitors containing tricyclic oxazine fused quinazolines scaffold” (Bioorg Med Chem Lett, 2020).
pIC50: −log10 of the molar value.

Tests used:
A-431 [1] = test: cells; type: functional, cell-based; settings: Homo sapiens, A-431, 72 h
Description: Antiproliferative activity against human A431 cells overexpressing EGFR assessed as cell growth inhibition measured after 72 hrs by MTT assay

NCI-N87 [2] = test: cells; type: functional, cell-based; settings: Homo sapiens, NCI-N87, 72 h
Description: Antiproliferative activity against human NCI-N87 cells overexpressing HER2 assessed as cell growth inhibition measured after 72 hrs by MTT assay

[3] = target: T1, Epidermal growth factor receptor (Homo sapiens, UniProt P00533); type: cell-based, KB
Description: Inhibition of EGFR in human KB cells assessed as reduction in EGF-stimulated EGFR phosphorylation preincubated for 1 hr followed by EGF stimulation and measured after 6 mins by ELISA

NCI-H1975 [4] = test: cells; type: functional, cell-based; settings: Homo sapiens, NCI-H1975, 72 h
Description: Antiproliferative activity against human NCI-H1975 cells harboring EGFR L858R/T790M mutant assessed as cell growth inhibition measured after 72 hrs by MTT assay

BT-474 [5] = test: cells; type: functional, cell-based; settings: Homo sapiens, BT-474, 72 h
Description: Antiproliferative activity against human BT474 cells overexpressing HER2 assessed as cell growth inhibition measured after 72 hrs by MTT assay

Calu-3 [6] = test: cells; type: functional, cell-based; settings: Homo sapiens, Calu-3, 72 h
Description: Antiproliferative activity against human Calu3 cells overexpressing HER2 assessed as cell growth inhibition measured after 72 hrs by MTT assay

A-431 [7] = test: Potency index, ratio of lapatinib IC50 to test compound IC50 for antiproliferative activity against human A431 cells overexpressing EGFR assessed as cell growth inhibition measured after 72 hrs by MTT assay; type: functional
NCI-N87 [8] = test: Potency index, ratio of erlotinib IC50 to test compound IC50 for antiproliferative activity against human NCI-N87 cells overexpressing HER2 assessed as cell growth inhibition measured after 72 hrs by MTT assay; type: functional
NCI-N87 [9] = test: Potency index, ratio of gefitinib IC50 to test compound IC50 for antiproliferative activity against human NCI-N87 cells overexpressing HER2 assessed as cell growth inhibition measured after 72 hrs by MTT assay; type: functional
[10] = target: T2, Receptor tyrosine-protein kinase erbB-2 (Homo sapiens, UniProt P04626); test: Inhibition of HER2 (unknown origin) using FAM-labeled peptide as substrate preincubated for 10 mins followed by substrate addition measured after 40 mins in presence of ATP by caliper mobility shift assay
A-431 [11] = test: Potency index, ratio of gefitinib IC50 to test compound IC50 for antiproliferative activity against human A431 cells overexpressing EGFR assessed as cell growth inhibition measured after 72 hrs by MTT assay; type: functional
Calu-3 [12] = test: Potency index, ratio of erlotinib IC50 to test compound IC50 for antiproliferative activity against human Calu3 cells overexpressing HER2 assessed as cell growth inhibition measured after 72 hrs by MTT assay; type: functional
A-431 [13] = test: Potency index, ratio of erlotinib IC50 to test compound IC50 for antiproliferative activity against human A431 cells overexpressing EGFR assessed as cell growth inhibition measured after 72 hrs by MTT assay; type: functional
[14] = target: T1, Epidermal growth factor receptor
Description: Inhibition of EGFR (unknown origin) using FAM-labeled peptide as substrate preincubated for 10 mins followed by substrate addition measured after 40 mins in presence of ATP by caliper mobility shift assay

NCI-N87 [15] = test: Potency index, ratio of lapatinib IC50 to test compound IC50 for antiproliferative activity against human NCI-N87 cells overexpressing HER2 assessed as cell growth inhibition measured after 72 hrs by MTT assay; type: functional
BT-474 [16] = test: Potency index, ratio of erlotinib IC50 to test compound IC50 for antiproliferative activity against human BT474 cells overexpressing HER2 assessed as cell growth inhibition measured after 72 hrs by MTT assay; type: functional
Calu-3 [17] = test: Potency index, ratio of lapatinib IC50 to test compound IC50 for antiproliferative activity against human Calu3 cells overexpressing HER2 assessed as cell growth inhibition measured after 72 hrs by MTT assay; type: functional
BT-474 [18] = test: Potency index, ratio of gefitinib IC50 to test compound IC50 for antiproliferative activity against human BT474 cells overexpressing HER2 assessed as cell growth inhibition measured after 72 hrs by MTT assay; type: functional
Calu-3 [19] = test: Potency index, ratio of gefitinib IC50 to test compound IC50 for antiproliferative activity against human Calu3 cells overexpressing HER2 assessed as cell growth inhibition measured after 72 hrs by MTT assay; type: functional
BT-474 [20] = test: Potency index, ratio of lapatinib IC50 to test compound IC50 for antiproliferative activity against human BT474 cells overexpressing HER2 assessed as cell growth inhibition measured after 72 hrs by MTT assay; type: functional
[21] = target: T2, Receptor tyrosine-protein kinase erbB-2; test: Potency index, ratio of erlotinib IC50 to test compound IC50 for inhibition of HER2 (unknown origin) using FAM-labeled peptide as substrate preincubated for 10 mins followed by substrate addition measured after 40 mins in presence of ATP by caliper mobility shift assay
NCI-H1975 [22] = test: Potency index, ratio of gefitinib IC50 to test compound IC50 for antiproliferative activity against human NCI-H1975 cells harboring EGFR L858R/T790M mutant assessed as cell growth inhibition measured after 72 hrs by MTT assay; type: functional
NCI-H1975 [23] = test: Potency index, ratio of lapatinib IC50 to test compound IC50 for antiproliferative activity against human NCI-H1975 cells harboring EGFR L858R/T790M mutant assessed as cell growth inhibition measured after 72 hrs by MTT assay; type: functional
NCI-H1975 [24] = test: Potency index, ratio of erlotinib IC50 to test compound IC50 for antiproliferative activity against human NCI-H1975 cells harboring EGFR L858R/T790M mutant assessed as cell growth inhibition measured after 72 hrs by MTT assay; type: functional
[25] = target: T2, Receptor tyrosine-protein kinase erbB-2; test: Potency index, ratio of lapatinib IC50 to test compound IC50 for inhibition of HER2 (unknown origin) using FAM-labeled peptide as substrate preincubated for 10 mins followed by substrate addition measured after 40 mins in presence of ATP by caliper mobility shift assay
[26] = target: T1, Epidermal growth factor receptor; test: Potency index, ratio of lapatinib IC50 to test compound IC50 for inhibition of EGFR (unknown origin) using FAM-labeled peptide as substrate preincubated for 10 mins followed by substrate addition measured after 40 mins in presence of ATP by caliper mobility shift assay
[27] = target: T2, Receptor tyrosine-protein kinase erbB-2; test: Potency index, ratio of gefitinib IC50 to test compound IC50 for inhibition of HER2 (unknown origin) using FAM-labeled peptide as substrate preincubated for 10 mins followed by substrate addition measured after 40 mins in presence of ATP by caliper mobility shift assay

T1 sequence (P00533 whole entry): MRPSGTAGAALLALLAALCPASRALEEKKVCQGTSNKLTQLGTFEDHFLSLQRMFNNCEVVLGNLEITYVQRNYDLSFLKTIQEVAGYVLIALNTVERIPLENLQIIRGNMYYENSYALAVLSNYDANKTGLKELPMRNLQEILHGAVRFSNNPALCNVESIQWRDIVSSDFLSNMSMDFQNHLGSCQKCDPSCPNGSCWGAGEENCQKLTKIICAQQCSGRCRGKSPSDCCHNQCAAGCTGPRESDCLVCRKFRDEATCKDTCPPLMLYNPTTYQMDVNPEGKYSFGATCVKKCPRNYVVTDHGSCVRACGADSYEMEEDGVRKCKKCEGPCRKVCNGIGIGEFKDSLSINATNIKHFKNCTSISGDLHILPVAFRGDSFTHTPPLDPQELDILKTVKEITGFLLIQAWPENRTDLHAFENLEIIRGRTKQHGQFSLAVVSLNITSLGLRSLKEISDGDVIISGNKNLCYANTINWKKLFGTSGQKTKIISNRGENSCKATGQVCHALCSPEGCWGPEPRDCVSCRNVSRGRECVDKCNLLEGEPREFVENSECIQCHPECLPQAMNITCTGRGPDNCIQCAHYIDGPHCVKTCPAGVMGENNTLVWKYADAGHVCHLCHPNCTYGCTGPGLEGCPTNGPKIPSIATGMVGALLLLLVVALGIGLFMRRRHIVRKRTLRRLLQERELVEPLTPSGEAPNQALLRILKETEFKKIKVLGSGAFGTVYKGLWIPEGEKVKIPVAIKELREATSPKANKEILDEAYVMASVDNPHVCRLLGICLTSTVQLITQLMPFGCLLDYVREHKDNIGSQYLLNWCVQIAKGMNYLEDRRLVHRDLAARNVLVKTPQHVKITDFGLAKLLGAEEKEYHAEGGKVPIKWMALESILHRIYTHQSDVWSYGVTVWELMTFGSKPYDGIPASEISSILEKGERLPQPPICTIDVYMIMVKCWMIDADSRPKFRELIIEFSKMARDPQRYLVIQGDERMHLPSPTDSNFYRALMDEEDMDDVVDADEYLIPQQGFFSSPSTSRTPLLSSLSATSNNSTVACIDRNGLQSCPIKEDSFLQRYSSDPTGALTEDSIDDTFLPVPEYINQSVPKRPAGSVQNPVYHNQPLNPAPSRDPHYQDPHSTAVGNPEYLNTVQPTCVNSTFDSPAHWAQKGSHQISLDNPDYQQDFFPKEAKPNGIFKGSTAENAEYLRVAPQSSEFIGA
T2 sequence (P04626 whole entry): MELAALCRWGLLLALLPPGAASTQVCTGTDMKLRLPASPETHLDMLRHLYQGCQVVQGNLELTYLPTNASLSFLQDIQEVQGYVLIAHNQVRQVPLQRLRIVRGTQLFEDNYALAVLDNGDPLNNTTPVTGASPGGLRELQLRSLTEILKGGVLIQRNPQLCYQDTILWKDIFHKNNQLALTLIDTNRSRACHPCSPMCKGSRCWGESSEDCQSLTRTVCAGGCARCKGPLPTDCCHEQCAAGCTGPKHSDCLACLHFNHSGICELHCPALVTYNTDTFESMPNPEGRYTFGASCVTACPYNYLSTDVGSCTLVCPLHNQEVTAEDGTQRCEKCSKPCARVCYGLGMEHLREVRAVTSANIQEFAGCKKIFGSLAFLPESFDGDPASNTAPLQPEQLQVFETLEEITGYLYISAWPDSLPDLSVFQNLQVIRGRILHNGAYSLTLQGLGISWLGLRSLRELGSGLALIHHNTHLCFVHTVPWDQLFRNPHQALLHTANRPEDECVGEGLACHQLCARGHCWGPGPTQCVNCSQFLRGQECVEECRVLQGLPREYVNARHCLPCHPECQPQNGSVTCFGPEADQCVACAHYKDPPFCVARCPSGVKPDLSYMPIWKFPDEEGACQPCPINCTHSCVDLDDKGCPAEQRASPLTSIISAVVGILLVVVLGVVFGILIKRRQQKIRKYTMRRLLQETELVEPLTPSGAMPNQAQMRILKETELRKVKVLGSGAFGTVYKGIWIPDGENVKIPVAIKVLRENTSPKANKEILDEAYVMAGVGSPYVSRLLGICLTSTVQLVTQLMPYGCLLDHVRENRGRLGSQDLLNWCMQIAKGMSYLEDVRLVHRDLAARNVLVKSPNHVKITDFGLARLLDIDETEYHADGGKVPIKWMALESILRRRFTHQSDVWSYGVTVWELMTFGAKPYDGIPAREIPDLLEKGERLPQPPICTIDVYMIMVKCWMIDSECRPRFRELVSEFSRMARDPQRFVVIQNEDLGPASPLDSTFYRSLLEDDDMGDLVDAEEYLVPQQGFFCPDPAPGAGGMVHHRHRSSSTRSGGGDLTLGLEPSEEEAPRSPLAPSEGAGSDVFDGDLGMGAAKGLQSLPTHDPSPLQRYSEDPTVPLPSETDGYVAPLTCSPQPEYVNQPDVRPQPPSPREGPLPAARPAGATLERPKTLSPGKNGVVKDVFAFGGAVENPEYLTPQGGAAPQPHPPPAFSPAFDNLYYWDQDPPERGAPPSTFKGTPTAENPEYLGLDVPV

| Compound | pIC50 (A-431 [1]) | pIC50 (NCI-N87 [2]) | pIC50 [3] | pIC50 (NCI-H1975 [4]) | pIC50 (BT-474 [5]) | pIC50 (Calu-3 [6]) | other results |
| --- | --- | --- | --- | --- | --- | --- | --- |
| CC1CCCCN1C/C=C/C(=O)N1CCCOc2cc3ncnc(Nc4ccc(OCc5cccc(F)c5)c(Cl)c4)c3cc21 (stereo not drawn) | < 5.00 | 6.30 | 5.23 | < 5.00 | 6.00 | < 5.00 | – |
| CN1CCN(C/C=C/C(=O)N2CCCOc3cc4ncnc(Nc5ccc(OCc6cccc(F)c6)c(Cl)c5)c4cc32)CC1 | 5.07 | 5.74 | 5.31 | < 5.00 | 5.77 | < 5.00 | – |
| O=C(/C=C/CN1CCCCC1)N1CCOc2cc3ncnc(Nc4ccc(OCc5cccc(F)c5)c(Cl)c4)c3cc21 | 6.10 | 7.14 | 6.94 | 5.75 | 6.93 | – | – |
| O=C(/C=C/CN1CCOCC1)N1CCOc2cc3ncnc(Nc4ccc(OCc5cccc(F)c5)c(Cl)c4)c3cc21 | 6.90 | 7.96 | 7.92 | 5.36 | 7.82 | 7.43 | Ratio IC50 (A-431 [7]): 2.5 - 28.3; Ratio IC50 (NCI-N87 [8]): >5.9 - 909; Ratio IC50 (NCI-N87 [9]): 4.3 - 26.6; pIC50 [10]: 7.92; Ratio IC50 (A-431 [11]): 4.3 - 26.6; Ratio IC50 (Calu-3 [12]): >5.9 - 909; Ratio IC50 (A-431 [13]): >5.9 - 909; pIC50 [14]: 8.15; Ratio IC50 (NCI-N87 [15]): 2.5 - 28.3; Ratio IC50 (BT-474 [16]): >5.9 - 909; Ratio IC50 (Calu-3 [17]): 2.5 - 28.3; Ratio IC50 (BT-474 [18]): 4.3 - 26.6; Ratio IC50 (Calu-3 [19]): 4.3 - 26.6; Ratio IC50 (BT-474 [20]): 2.5 - 28.3 |
| O=C(/C=C/CN1CCCCC1)N1CCCOc2cc3ncnc(Nc4ccc(OCc5cccc(F)c5)c(Cl)c4)c3cc21 | < 5.00 | < 5.00 | 6.07 | 5.78 | < 5.00 | < 5.00 | – |
| CC1CCN(C/C=C/C(=O)N2CCCOc3cc4ncnc(Nc5ccc(OCc6cccc(F)c6)c(Cl)c5)c4cc32)CC1 | 5.68 | 6.08 | 5.31 | < 5.00 | 6.00 | < 5.00 | – |
| O=C(/C=C/CN1CCOCC1)N1CCCOc2cc3ncnc(Nc4ccc(OCc5cccc(F)c5)c(Cl)c4)c3cc21 | < 5.00 | < 5.00 | < 5.00 | < 5.00 | < 5.00 | < 5.00 | – |
| CC1CCN(C/C=C/C(=O)N2CCOc3cc4ncnc(Nc5ccc(OCc6cccc(F)c6)c(Cl)c5)c4cc32)CC1 | 5.95 | 6.78 | – | 5.91 | 6.70 | – | – |
| CN1CCN(C/C=C/C(=O)N2CCOc3cc4ncnc(Nc5ccc(OCc6cccc(F)c6)c(Cl)c5)c4cc32)CC1 | 6.75 | 7.74 | 7.35 | 5.64 | 7.60 | 6.85 | pIC50 [10]: 7.92; pIC50 [14]: 8.22; Ratio IC50 [26]: 3.7 |

The next lines start with results.

| pIC50 (A-431 [1]) | pIC50 (NCI-N87 [2]) | pIC50 [3] | pIC50 (NCI-H1975 [4]) | pIC50 (BT-474 [5]) | pIC50 (Calu-3 [6]) | Compound | other results |
| --- | --- | --- | --- | --- | --- | --- | --- |
| 6.10 | 6.96 | 6.24 | < 5.00 | 6.76 | < 5.00 | O=C(/C=C/CN1CCCC1)N1CCCOc2cc3ncnc(Nc4ccc(OCc5cccc(F)c5)c(Cl)c4)c3cc21 | – |
| – | < 5.00 | – | – | < 5.00 | – | C#Cc1cccc(Nc2ncnc3cc(OCCOC)c(OCCOC)cc23)c1 [ERLOTINIB] | – |
| 5.60 | 7.64 | 6.92 | 5.70 | 7.32 | – | O=C(/C=C/Cn1ccnc1)N1CCOc2cc3ncnc(Nc4ccc(OCc5cccc(F)c5)c(Cl)c4)c3cc21 | – |
| 6.20 | 7.32 | 6.92 | 5.78 | 7.22 | 6.75 | O=C(/C=C/CN1CCCC1)N1CCOc2cc3ncnc(Nc4ccc(OCc5cccc(F)c5)c(Cl)c4)c3cc21 | Ratio IC50 [21]: 92; pIC50 [10]: 8.40; Ratio IC50 (NCI-H1975 [22]): 4 - 8; pIC50 [14]: 8.15; Ratio IC50 (NCI-H1975 [23]): 4 - 8; Ratio IC50 (NCI-H1975 [24]): 4 - 8; Ratio IC50 [25]: 3 to 4; Ratio IC50 [26]: 3 to 4; Ratio IC50 [27]: 70 |
| 6.59 | 7.92 | 6.90 | 5.60 | 7.68 | – | CN(C)C/C=C/C(=O)N1CCOc2cc3ncnc(Nc4ccc(OCc5cccc(F)c5)c(Cl)c4)c3cc21 | – |
| 6.35 | 6.99 | 6.75 | 5.64 | 6.90 | – | CC1CCCCN1C/C=C/C(=O)N1CCOc2cc3ncnc(Nc4ccc(OCc5cccc(F)c5)c(Cl)c4)c3cc21 (stereo not drawn) | – |
| 5.44 | 7.28 | – | 5.13 | 7.43 | 6.67 | CS(=O)(=O)CCNCc1ccc(-c2ccc3ncnc(Nc4ccc(OCc5cccc(F)c5)c(Cl)c4)c3c2)o1 [LAPATINIB] | – |
| 6.21 | 7.43 | 6.79 | 5.83 | 7.24 | 6.56 | CCN(CC)C/C=C/C(=O)N1CCOc2cc3ncnc(Nc4ccc(OCc5cccc(F)c5)c(Cl)c4)c3cc21 | Ratio IC50 [21]: 92; pIC50 [10]: 8.40; Ratio IC50 (NCI-H1975 [22]): 4 - 8; pIC50 [14]: 8.10; Ratio IC50 (NCI-H1975 [23]): 4 - 8; Ratio IC50 (NCI-H1975 [24]): 4 - 8; Ratio IC50 [25]: 3 to 4; Ratio IC50 [26]: 3 to 4; Ratio IC50 [27]: 70 |
| < 5.00 | < 5.00 | 7.10 | 5.83 | 6.94 | < 5.00 | CCN(CC)C/C=C/C(=O)N1CCCOc2cc3ncnc(Nc4ccc(OCc5cccc(F)c5)c(Cl)c4)c3cc21 | – |
| 5.62 | 7.13 | 6.35 | < 5.00 | 6.90 | < 5.00 | CN(C)C/C=C/C(=O)N1CCCOc2cc3ncnc(Nc4ccc(OCc5cccc(F)c5)c(Cl)c4)c3cc21 | – |
